Data on six molecules can be found in patent US20240327787A1, “CULTURE MEDIUM, COATING MATRIX AND METHOD FOR EXPANDING MIDBRAIN DOPAMINERGIC PROGENITOR CELLS” (NUWACELL BIOTECHNOLOGIES CO., LTD., priority 2022, published 2024).

Holding throughout (assay type): cell-based, human
Assay [1] relates to imDAPs. As to the kind of experiment: imDAP expansion, cell morphology (bright-field). To be noted: for attachment and morphology of imDAPs on coated surface (FIG. 4A): coating 1 μg/cm^2 each, day 4, Example 8 expansion medium. Here is the method: imDAPs were produced according to the method described in CN201910169525.0. The imDAPs (P0) were seeded on VTN-coated plates (1 μg/cm^2) at a density of 1×10^5 cells/cm^2 in the expansion medium (50% DMEM/F12, 50% Neurobasal™ medium, 1% (v/v) Glutamax, 2% (v/v) B27 (50×), 0.2 μM LDN193189, 3 μM CHIR99021, 100 ng/mL FGF8b) in the absence or presence of 5 μM Blebbistatin. In case where Blebbistatin is present, Blebbistatin was either removed 24 hrs after plating or present throughout the culture period. The medium was changed every day for 5 days.
imDAPs were produced according to the method described in CN201910169525.0. The imDAPs (P0) were seeded on VTN-coated plates (1 μg/cm^2) at a density of 1×10^5 cells/cm^2 in the expansion medium (50% DMEM/F12, 50% Neurobasal™ medium, 1% (v/v) Glutamax, 2% (v/v) B27 (50×), 3 μM CHIR99021, 100 ng/mL FGF8b, 5 μM Blebbistatin) in the absence or presence of 0.2 μM LDN193189. The medium was changed every day for 5 days.
(§1) imDAPs were produced according to the method described in CN201910169525.0. The imDAPs (P0) were seeded on DLL4-coated (1 μg/cm^2), VTN-coated (1 μg/cm^2) and DLL4/VTN-coated (1 μg/cm^2 for each) plates at a low density of 1×10^4 cells/cm^2 respectively, and cultured in the expansion medium in the absence or presence of 5 μM SB431542. Medium was replaced every 3rd day until reaching 100% confluence (6 days) for cell collection. The typical cell morphology on day 4 was recorded (FIG. 4A). The cell number of each group was counted by Vi-cell cytometer (FIG. 4B). The cells of each group were stained with Foxa2-PE antibody (BD, #561589), the percentage of Foxa2+ imDAPs were analyzed by flow cytometry (FIG. 4C). The expansion medium used in this example contained the following components: 50% DMEM/F12, 50% Neurobasal™ medium, 1% (v/v) Glutamax, 1% (v/v) B27, 50 μg/ml ascorbic acid, 0.2 μM LDN193189, 100 ng/ml FGF8b, 3 μM CHIR99021 and 10 µM Y27632.
(§2) imDAPs were produced according to the method described in CN201910169525.0. The imDAPs (P0) were seeded on DLL4/VTN-coated (1 μg/cm^2 for each) plates at a low density of 1×10^4 cells/cm^2, and cultured in the expansion medium (EM1, EM2, EM3, EM4). Medium was replaced every 3rd day until reaching 100% confluence (6 days) for cell collection. EM1 used in Example 9 contained the following components: 50% DMEM/F12, 50% Neurobasal™ medium, 1% (v/v) Glutamax, 1% (v/v) B27 (50×), 50 μg/ml ascorbic acid, 3 μM CHIR99021, 5 μM SB431542 and 10 μM Y27632. EM2 used in Example 9 contained the following components: 50% DMEM/F12, 50% Neurobasal™ medium, 1% (v/v) Glutamax, 1% (v/v) B27 (50×), 50 μg/ml ascorbic acid, 0.2 μM LDN193189, 3 μM CHIR99021, 5 μM SB431542 and 10 μM Y27632. EM3 used in Example 9 contained the following components: 50% DMEM/F12, 50% Neurobasal™ medium, 1% (v/v) Glutamax, 1% (v/v) B27 (50×), 50 μg/mL ascorbic acid, 0.2 μM LDN193189, 100 ng/ml FGF8b, 3 μM CHIR99021, 5 μM SB431542 and 10 μM Y27632. EM4 used in Example 9 contained the following components: 50% DMEM/F12, 50% Neurobasal™ medium, 1% (v/v) Glutamax, 1% (v/v) B27 (50×), 50 μg/ml ascorbic acid, 0.2 μM LDN193189, 10 ng/ml FGF2, 3 μM CHIR99021, 5 μM SB431542 and 10 μM Y27632.

Assay [2] deals with imDAPs. Briefly: imDAP expansion efficiency (cell number, expansion fold, Population Doubling Time). To be noted: DLL4/VTN-coated; for imDAP expansion, overall conclusion of Example 9: added to CHIR99021/SB431542/Y27632 medium. Here is the method:
imDAPs were produced according to the method described in CN201910169525.0. The imDAPs (P0) were seeded on VTN-coated plates (1 μg/cm^2) at a density of 1×10^5cells/cm^2 in the expansion medium (50% DMEM/F12, 50% Neurobasal™ medium, 1% (v/v) Glutamax, 2% (v/v) B27 (50×), 0.2 μM LDN193189, 3 μM CHIR99021, 100 ng/mL FGF8b, 5 μM Blebbistatin). The medium was changed every day. When imDAPs reach 100% confluence (4-5 days), cells were passaged enzymatically with 1× TrypLE, centrifuged at 250 g for 5 minutes, counted and replaced on new VTN-coated plates (1 μg/cm^2) at a density of 1×10^5 cells/cm^2 in the expansion medium. imDAPs were continuously expanded for 6 passages. At each passage, imDAPs were harvested at an expansion fold 5˜10 (over the initial number of imDAPs plated).
as §1, with “The expansion medium used in this example contained the following components: 50% DMEM/F12, 50% Neurobasal™ medium, 1% (v/v) Glutamax, 1% (v/v) B27, 50 μg/ml ascorbic acid, 0.2 μM LDN193189, 100 ng/ml FGF8b, 3 μM CHIR99021 and 10 µM Y27632.” left out
imDAPs were produced according to the method described in CN201910169525.0. […] Medium was replaced every 3rd day until reaching 100% confluence (6 days) for cell passaging. imDAPs were passaged enzymatically with 1× TrypLE, centrifuged at 250 g for 5 minutes, counted and plated on new DLL4/VTN-coated plates at a density of 1×10^4 cells/cm^2 in the expansion medium. imDAPs were expanded and maintained in the expansion medium for 6 passages. […]

Assay [3] has as its system imDAPs. Briefly: Flow cytometry analysis of FOXA2 expression in expanded imDAPs. To be noted: for FOXA2 expression, FACS (FIG. 4C): VTN or DLL4+VTN coating, with or without 5 μM SB431542, 6 days. On the procedure: 1. Individualize and collect cells by either Accutase or TrypLE treatment.
2. Wash cells with 1 ml PBS and pellet cells at 250×g for 15 sec.
3. Remove supernatant, add ˜200 μl of 4% PFA, mix and fix for 10 min at RT.
4. Pellet cells at 350×g for 5 min.
5. Wash cells by 1 ml of FACS buffer and pellet cells at 350×g for 5 min.
6. Remove supernatant, add 200 μl/tube of FACS buffer/0.1% TritonX, mix for 10 min at RT.
7. Wash cells by 1 ml of FACS buffer and pellet cells at 350×g for 5 min.
8. Remove supernatant, add 200 μl/tube of primary antibody diluted in FACS buffer, mix gently, and incubate for 30 min at RT.
9. Wash cells by 1 ml of FACS buffer and pellet cells at 350×g for 5 min.
10. Remove supernatant, and add 200 μl of secondary antibody diluted in FACS buffer, mix gently, and incubate for 30 min at RT.
11. Wash cells by 1 ml of FACS buffer and pellet cells at 300×g for 5 min.
12. Remove supernatant, add 200 μl of FACS buffer, and run samples on the flow cytometry.
imDAPs were produced according to the method described in CN201910169525.0. The imDAPs (P0) were seeded on VTN-coated plates (1 μg/cm^2) at a low density of 1×10^4 cells/cm^2, and cultured in the expansion medium (50% DMEM/F12, 50% Neurobasal™ medium, 1% (v/v) Glutamax, 2% (v/v) B27 (50×), 0.2 μM LDN193189, 3 μM CHIR99021, 100 ng/mL FGF8b) with either 5 μM Blebbistatin or 10 μM Y27632. Medium was replaced every 3rd day. At Day 6, cells were collected for FACS analysis.
as §1
as §2, with “EM4 used in Example 9 contained the following components: 50% DMEM/F12, 50% Neurobasal™ medium, 1% (v/v) Glutamax, 1% (v/v) B27 (50×), 50 μg/ml ascorbic acid, 0.2 μM LDN193189, 10 ng/ml FGF2, 3 μM CHIR99021, 5 μM SB431542 and 10 μM Y27632.” left out
On the technique in general: Flow cytometry measures light scatter and fluorescence of single cells or particles in a stream.

Turning to `Cc1ccc2c(c1)C(=O)C1(O)CCN(c3ccccc3)C1=N2` (centres unmarked) [Blebbistatin], the “imDAP expansion (cell morphology, FIG. 1A)” value in the assay on imDAPs [1] (5 μM Blebbistatin throughout culture vs absent or removed 24 hrs after plating, VTN-coated plates, 5 days, P0 imDAPs) is “supported better imDAP expansion”.

`c1ccc2c(-c3cnn4cc(-c5ccc(N6CCNCC6)cc5)cnc34)ccnc2c1` [LDN193189]: the “cell morphology of expanded imDAPs (FIG. 1B)” value in the assay with imDAPs [1] (absence vs presence of 0.2 μM LDN193189, VTN-coated, 5 days) is listed as “imDAPs cultured without LDN193189 showed more flattened morphology”. Besides, the “imDAP expansion, overall conclusion of Example 9” value with imDAPs [2] is “had no additional effects on imDAP expansion”. Besides, in the assay with imDAPs [2] (adding 0.2 μM LDN193189 and/or 100 ng/ml FGF8b to CHIR99021/SB431542/Y27632 medium, 6 days), the “cell number during expansion (FIG. 5B)” value is on record as “had no additional effect on increasing the cell number”. Also, in the assay on imDAPs [3] (addition of 100 ng/ml FGF8b and/or 0.2 μM LDN193189, DLL4/VTN-coated, P1 cells), the “expression of FOXA2 for imDAPs, flow cytometry (FIG. 5C)” value was “slightly decreased the expression of FOXA2”.

With `NC(=O)c1ccc(-c2nc(-c3ccc4c(c3)OCO4)c(-c3ccccn3)[nH]2)cc1` [SB431542], the “FOXA2 expression, FACS (FIG. 4C)” value in the assay on imDAPs [3] is recorded as “could improve FOXA2 expression”.

With “DLL4: Notch agonist Delta-Like 4, used as coating matrix”, in the assay on imDAPs [1], the “attachment and morphology of imDAPs on coated surface (FIG. 4A)” value is “could not support the attachment of imDAPs”. Further, the “FOXA2 expression, FACS (FIG. 4C)” value in the assay on imDAPs [3] was “could improve FOXA2 expression”.

Turning to FGF2: fibroblast growth factor, the “cell morphology on day 5 (FIG. 5A)” value in the assay on imDAPs [1] (10 ng/ml FGF2 (with 0.2 μM LDN193189) in expansion medium EM4, DLL4/VTN-coated) is listed as “some obvious heterogeneous cells were observed”. In the assay on imDAPs [2], the “imDAP expansion, overall conclusion of Example 9” value was “had no additional effects on imDAP expansion”.

B1: VTN: vitronectin, first coating matrix that supports cell adhesion (protein, UniProt P04004 20-478, looked up)
Vitronectin: DQESCKGRCTEGFNVDKKCQCDELCSYYQSCCTDYTAECKPQVTRGDVFTMPEDEYTVYDDGEEKNNATVHEQVGGPSLTSDLQAQSKGNPEQTPVLKPEEEAPAPEVGASKPEGIDSRPETLHPGRPQPPAEEELCSGKPFDAFTDLKNGSLFAFRGQYCYELDEKAVRPGYPKLIRDVWGIEGPIDAAFTRINCQGKTYLFKGSQYWRFEDGVLDPDYPRNISDGFDGIPDNVDAALALPAHSYSGRERVYFFKGKQYWEYQFQHQPSQEECEGSSLSAVFEHFAMMQRDSWEDIFELLFWGRTSAGTRQPQFISRDWHGVPGQVDAAMAGRIYISGMAPRPSLAKKQRFRHRNRKGYRSQRGHSRGRNQNSRRPSRATWLSLFSSEESNLGANNYDDYRMDWLVPATCEPIQSVFFFSGDKYYRVNLRTRRVDTVDPPYPRSIAQYWLGCPAPGHL
For B1, in the assay with imDAPs [1], the “attachment and morphology of imDAPs on coated surface (FIG. 4A)” value is “flattened morphology”.
